Measurements reported in patent US8367625B2, “Antibacterial aminoglycoside analogs” (Achaogen, Inc., priority 2008, dated 2013).
In brackets after ≈: the same amount, converted by molar mass.

Columns and labels:
[1] = system: P. aeruginosa ATCC 27853 (APAE001); experiment: MIC assay, CLSI broth microdilution, APAE001; format: cell-based; conditions: Pseudomonas aeruginosa; APAE001 is ATCC27853; Mueller Hinton Broth, 35 C, 20 hours
Method: (§1) Minimum inhibitory concentrations (MIC) were determined by reference Clinical and Laboratory Standards Institute (CLSI) broth microdilution methods per M7-A7 [2006]. Quality control ranges utilizing E. coli ATCC 25922, P. aeruginosa ATCC 27853 and S. aureus ATCC 29213, and interpretive criteria for comparator agents were as published in CLSI M100-S17 [2007]. Briefly, serial two-fold dilutions of the test compounds were prepared at 2× concentration in Mueller Hinton Broth. The compound dilutions were mixed in 96-well assay plates in a 1:1 ratio with bacterial inoculum. The inoculum was prepared by suspension of a colony from an agar plate that was prepared the previous day. Bacteria were suspended in sterile saline and added to each assay plate to obtain a final concentration of 5×10^5 CFU/mL. The plates were incubated at 35 C. for 20 hours in ambient air.

[2] = system: E. coli ATCC 25922 (AECO001); experiment: MIC assay, CLSI broth microdilution, AECO001; format: cell-based; conditions: Escherichia coli; AECO001 is ATCC25922; Mueller Hinton Broth, 35 C, 20 hours
Method: as §1

MIC [1]: 1 to 16 µg/mL (≈ 1.38 to 22 µM) | MIC [2]: ≤ 1 µg/mL
SMILES: NCC[C@H](O)C(=O)N[C@@H]1C[C@H](N)[C@@H](O[C@H]2O[C@H](CNCCO)C=C[C@H]2N)[C@H](O[C@@H]2O[C@H](CO)[C@@H](O[C@H]3O[C@@H](CN)[C@@H](O)[C@H](O)[C@H]3N)[C@H]2O)[C@H]1O [1/20]
